# According to US9624218B2 (Eli Lilly and Company, priority 2014, dated 2017):
# Several values for one entry are separate records, joined by “and”; a condition that tells them apart may be missing. Equal values may be shown once. Read-outs that look alike come from different tables or passages of the source.
# How the values were obtained:
# [1] = tested on: EGFP-Axin2 fusion protein; conditions: read-out: Axin2 Stabilization EC50; HEK293 EGFP-Axin2 cells, 24 hours; Mean ± SEM
# [2] = tested on: Wnt-inducible genes (TCF/LEF luciferase reporter in DLD-1 TOPFlash cells); experiment: cells; conditions: Homo sapiens, DLD-1, 24 h, read-out: Wnt-inducible gene expression inhibition IC50, DLD-1 TOPFlash cells, 24 hours; Mean ± SEM
# [3] = tested on: Wnt-inducible genes (TCF/LEF luciferase reporter in DLD-1 TOPFlash cells); conditions: read-out: Wnt-inducible gene expression inhibition IC50, 24 hours, Mean ± SEM
# [4] = tested on: Panc 04.03 cells; conditions: 11 days
# [5] = tested on: C57BL/6J-Apc^Min/J strain mice; experiment: In vivo antitumor activity, intestinal polyps; conditions: 25 mg/kg BID, 60 consecutive days, small intestine
# Source text: C57BL/6J-Apc^Min/J strain mice carry a truncating mutation at codon 850 of the Apc gene and develop intestinal polyps and colorectal neoplasms at the age of 3-6 months. Truncation in the APC gene leads to activation of the Wnt signaling pathway and elevated levels of β catenin are frequently detected in pre-neoplastic/neoplastic lesions in these mice.
# At the end of the treatment period, the animals are sacrificed and the number of polyps in the small intestine is counted under a dissection microscope.
# [6] = tested on: HPAF-II cells; experiment: cells; conditions: Homo sapiens, read-out: % Inhibition of Colony Formation
# [7] = tested on: A549 cells; experiment: cells; conditions: Homo sapiens, read-out: % Inhibition of Colony Formation
# [8] = tested on: Capan-2 cells; experiment: cells; conditions: Homo sapiens, read-out: % Inhibition of Colony Formation
# [9] = molecular target: hTNKS1 (Homo sapiens (Human), UniProt O95271); experiment: hTNKS1 enzyme activity ELISA (poly ADP ribose incorporation into TRF1); format: biochemical; conditions: Mean ± SEM
# Sequence of hTNKS1 (O95271 whole entry, change not shown): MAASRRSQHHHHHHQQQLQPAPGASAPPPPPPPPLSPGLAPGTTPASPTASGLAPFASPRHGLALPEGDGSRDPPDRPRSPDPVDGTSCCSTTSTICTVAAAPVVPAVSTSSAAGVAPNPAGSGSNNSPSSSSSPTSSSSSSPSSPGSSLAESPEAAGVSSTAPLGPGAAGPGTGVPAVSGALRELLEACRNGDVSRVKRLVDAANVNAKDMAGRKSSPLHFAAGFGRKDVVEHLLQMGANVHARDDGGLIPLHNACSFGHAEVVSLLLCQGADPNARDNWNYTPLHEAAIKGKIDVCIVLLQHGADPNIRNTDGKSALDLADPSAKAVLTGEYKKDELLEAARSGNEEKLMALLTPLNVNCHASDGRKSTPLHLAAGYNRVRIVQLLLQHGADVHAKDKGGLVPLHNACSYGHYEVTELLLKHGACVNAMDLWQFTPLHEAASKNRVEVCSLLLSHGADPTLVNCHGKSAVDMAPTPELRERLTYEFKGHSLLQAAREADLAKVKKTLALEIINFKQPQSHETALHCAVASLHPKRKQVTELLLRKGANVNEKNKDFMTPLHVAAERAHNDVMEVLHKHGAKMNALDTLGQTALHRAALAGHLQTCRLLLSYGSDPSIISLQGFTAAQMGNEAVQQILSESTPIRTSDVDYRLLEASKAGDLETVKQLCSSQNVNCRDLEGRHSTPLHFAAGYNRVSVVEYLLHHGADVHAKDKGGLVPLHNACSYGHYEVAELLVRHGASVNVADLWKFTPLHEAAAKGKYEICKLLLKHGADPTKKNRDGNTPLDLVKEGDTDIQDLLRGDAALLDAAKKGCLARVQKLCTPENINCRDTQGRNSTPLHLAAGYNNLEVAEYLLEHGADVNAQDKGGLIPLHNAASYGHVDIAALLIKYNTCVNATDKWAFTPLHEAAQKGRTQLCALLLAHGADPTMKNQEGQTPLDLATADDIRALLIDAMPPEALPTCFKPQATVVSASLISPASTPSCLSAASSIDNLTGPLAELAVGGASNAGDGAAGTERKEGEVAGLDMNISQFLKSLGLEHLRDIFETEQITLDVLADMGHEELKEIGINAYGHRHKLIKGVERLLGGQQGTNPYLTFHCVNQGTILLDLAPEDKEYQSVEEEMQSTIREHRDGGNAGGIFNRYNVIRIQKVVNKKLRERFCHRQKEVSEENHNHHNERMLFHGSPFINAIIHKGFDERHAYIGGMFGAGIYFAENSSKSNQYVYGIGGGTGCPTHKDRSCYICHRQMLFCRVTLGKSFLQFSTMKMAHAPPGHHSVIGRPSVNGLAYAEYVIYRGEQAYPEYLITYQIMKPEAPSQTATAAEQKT
smiles,measurement,setting,value
"CC(c1ncccn1)N1CCN(c2nc3c(c(=O)[nH]2)CCCN3C)CC1 (racemic) [Example 7, 8-Methyl-2-[4-(1-pyrimidin-2-ylethyl)piperazin-1-yl]-3,5,6,7-tetrahydropyrido[2,3-d]pyrimidin-4-one]",EC50,[1],121 nM
same,IC50,[2],14.6 nM
"CC(c1ncccn1)N1CCN(c2nc3c(c(=O)[nH]2)CCCN3C)CC1 (single isomer, unassigned; isomer 1) [Example 8, 8-Methyl-2-[4-(1-pyrimidin-2-ylethyl)piperazin-1-yl]-3,5,6,7-tetrahydropyrido[2,3-d]pyrimidin-4-one, Isomer 1]",EC50,[1],71.5 nM
same,IC50,[2],18.4 nM
"CC(c1ncccn1)N1CCN(c2nc3c(c(=O)[nH]2)CCCN3C)CC1 (single isomer, unassigned; isomer 2) [Example 9, 8-Methyl-2-[4-(1-pyrimidin-2-ylethyl)piperazin-1-yl]-3,5,6,7-tetrahydropyrido[2,3-d]pyrimidin-4-one, Isomer 2]",EC50,[1],70.9 nM
same,IC50,[3],28.2 nM
"CCC(c1ncccn1)N1CCN(c2nc3c(c(=O)[nH]2)CCCN3C)CC1 (single isomer, unassigned; isomer 2) [Example 12, 8-Methyl-2-[4-(1-pyrimidin-2-ylpropyl)piperazin-1-yl]-3,5,6,7-tetrahydropyrido[2,3-d]pyrimidin-4-one, Isomer 2]",EC50,[1],122 nM
same,IC50,[3],19.5 nM
"CN1CCCc2c1nc(N1CCN(Cc3ncccn3)CC1)[nH]c2=O [Example 1, 8-Methyl-2-[4-(pyrimidin-2-ylmethyl)piperazin-1-yl]-3,5,6,7-tetrahydropyrido[2,3-d]pyrimidin-4-one]",% Inhibition of Colony Formation,"[4]; Panc 04.03, 0.03 μM",−34.35%
same,% Inhibition of Colony Formation,"[4]; Panc 04.03, 0.11 μM",51.39%
same,% Inhibition of Colony Formation,"[4]; Panc 04.03, 0.33 μM",92.79%
same,% Inhibition of Colony Formation,"[4]; Panc 04.03, 1 μM",92.51%
same,% Inhibition of Colony Formation,"[4]; Panc 04.03, 3 μM",90.03%
same,Average Number of polyps per Animal,[5],statistically significant lower number of tumors and 4.3 ± 0.70
same,EC50,[1],65.9 nM
same,inhibition at 0.03 µM,[6],2.44%
same,inhibition at 0.11 µM,[6],40.5%
same,inhibition at 0.33 µM,[6],61.6%
same,inhibition at 1 µM,[6],85.2%
same,inhibition at 3 µM,[6],88.2%
same,inhibition at 0.03 µM,[7],25.5%
same,inhibition at 0.11 µM,[7],46.5%
same,inhibition at 0.33 µM,[7],54.2%
same,inhibition at 1 µM,[7],74.3%
same,inhibition at 3 µM,[7],72.1%
same,IC50,[2],13.2 nM
same,inhibition at 0.03 µM,[8],-20.8%
same,inhibition at 0.11 µM,[8],18%
same,inhibition at 0.33 µM,[8],55.9%
same,inhibition at 1 µM,[8],63.9%
same,inhibition at 3 µM,[8],70.7%
"CN1CCCc2c1nc(N1CCN(Cc3ncccc3Cl)CC1)[nH]c2=O [Example 2, 2-[4-[(3-Chloro-2-pyridyl)methyl]piperazin-1-yl]-8-methyl-3,5,6,7-tetrahydropyrido[2,3-d]pyrimidin-4-one]",EC50,[1],32 nM
same,IC50,[2],8.17 nM
"CN1CCCc2c1nc(N1CCN(Cc3ncccc3Br)CC1)[nH]c2=O [Example 3, 2-[4-[(3-Bromo-2-pyridyl)methyl]piperazin-1-yl]-8-methyl-3,5,6,7-tetrahydropyrido[2,3-d]pyrimidin-4-one]",EC50,[1],18.4 nM
same,IC50,[2],8.66 nM
"CN1CCCc2c1nc(N1CCN(Cc3ncccc3O)CC1)[nH]c2=O [Example 4, 2-[4-[(3-Hydroxy-2-pyridyl)methyl]piperazin-1-yl]-8-methyl-3,5,6,7-tetrahydropyrido[2,3-d]pyrimidin-4-one]",EC50,[1],26.9 nM
same,IC50,[2],6.71 nM
CC(c1ncc(F)cn1)N1CCN(c2nc3c(c(=O)[nH]2)CCCN3C)CC1 (stereo not shown) [Example 5],IC50,[9],85.2 nM
"CCC(c1ncccn1)N1CCN(c2nc3c(c(=O)[nH]2)CCCN3C)CC1 (stereo not shown) [Example 10, 8-Methyl-2-[4-(1-pyrimidin-2-ylpropyl)piperazin-1-yl]-3,5,6,7-tetrahydropyrido[2,3-d]pyrimidin-4-one]",EC50,[1],590 nM
same,IC50,[2],171 nM
"COc1ccnc(CN2CCN(c3nc4c(c(=O)[nH]3)CCCN4C)CC2)n1 [Example 13, 2-[4-[(4-methoxypyrimidin-2-yl)methyl]piperazin-1-yl]-8-methyl-3,5,6,7-tetrahydropyrido[2,3-d]pyrimidin-4-one]",EC50,[1],101 nM
same,IC50,[2],23 nM
"Cc1ccnc(CN2CCN(c3nc4c(c(=O)[nH]3)CCCN4C)CC2)n1 [Example 14, 8-Methyl-2-[4-[(4-methylpyrimidin-2-yl)methyl]piperazin-1-yl]-3,5,6,7-tetrahydropyrido[2,3-d]pyrimidin-4-one]",EC50,[1],52.7 nM
same,IC50,[2],9.35 nM
"CN1CCCc2c1nc(N1CCN(Cc3ncc(C(F)(F)F)cn3)CC1)[nH]c2=O [Example 15, 8-Methyl-2-[4-[[5-(trifluoromethyl)pyrimidin-2-yl]methyl)piperazin-1-yl]-3,5,6,7-tetrahydropyrido[2,3-d]pyrimidin-4-one]",EC50,[1],115 nM
same,IC50,[2],15.4 nM
"CN1CCCc2c1nc(N1CCN(Cc3nccc(C(F)(F)F)n3)CC1)[nH]c2=O [Example 16, 8-Methyl-2-[4-[[4-(trifluoromethyl)pyrimidin-2-yl]methyl]piperazin-1-yl]-3,5,6,7-tetrahydropyrido[2,3-d]pyrimidin-4-one]",EC50,[1],509 nM
same,IC50,[2],102 nM
"Cc1cnc(CN2CCN(c3nc4c(c(=O)[nH]3)CCCN4C)CC2)nc1 [Example 17, 8-Methyl-2-[4-[(5-methylpyrimidin-2-yl)methyl]piperazin-1-yl]-3,5,6,7-tetrahydropyrido[2,3-d]pyrimidin-4-one]",EC50,[1],198 nM
same,IC50,[2],37.3 nM
"CN1CCCc2c1nc(N1CCN(Cc3ncc(Cl)cn3)CC1)[nH]c2=O [Example 18, 2-[4-[(5-Chloropyrimidin-2-yl)methyl]piperazin-1-yl]-8-methyl-3,5,6,7-tetrahydropyrido[2,3-d]pyrimidin-4-one]",EC50,[1],901 nM
same,IC50,[2],156 nM
"CN1CCCc2c1nc(N1CCN(Cc3ccccn3)CC1)[nH]c2=O [Example 19, 8-Methyl-2-[4-(2-pyridylmethyl)piperazin-1-yl]-3,5,6,7-tetrahydropyrido[2,3-d]pyrimidin-4-one]",EC50,[1],62.6 nM
same,IC50,[2],12.6 nM
"CN1CCCc2c1nc(N1CCN(Cc3ncccc3F)CC1)[nH]c2=O [Example 20, 2-[4-[(3-Fluoro-2-pyridyl)methyl]piperazin-1-yl]-8-methyl-3,5,6,7-tetrahydropyrido[2,3-d]pyrimidin-4-one]",EC50,[1],77.9 nM
same,IC50,[2],22.2 nM
"CN1CCCc2c1nc(N1CCN(Cc3ccccc3Cl)CC1)[nH]c2=O [Example 38, 2-[4-[(2-Chlorophenyl)methyl]piperazin-1-yl]-8-methyl-3,5,6,7-tetrahydropyrido[2,3-d]pyrimidin-4-one]",EC50,[1],34.8 nM
same,IC50,[2],22.2 nM
"CN1CCCc2c1nc(N1CCN(Cc3ncc(F)cn3)CC1)[nH]c2=O [Example 39, 2-[4-[(5-Fluoropyrimidin-2-yl)methyl]piperazin-1-yl]-8-methyl-3,5,6,7-tetrahydropyrido [2,3-d]pyrimidin-4-one]",EC50,[1],181 nM
same,IC50,[2],20.6 nM
"CN1CCCc2c1nc(N1CCN(Cc3ncccc3C#N)CC1)[nH]c2=O [Example 40, 2-[[4-(8-Methyl-4-oxo-3,5,6,7-tetrahydropyrido[2,3-d]pyrimidin-2-yl)piperazin-1-yl]methyl]pyridine-3-carbonitrile]",EC50,[1],39.8 nM
same,IC50,[2],6.95 nM
"CN1CCCc2c1nc(N1CCN(Cc3nccc(Cl)n3)CC1)[nH]c2=O [Example 41, 2-[4-[(4-Chloropyrimidin-2-yl)methyl]piperazin-1-yl]-8-methyl-3,5,6,7-tetrahydropyrido[2,3-d]pyrimidin-4-one]",EC50,[1],61.6 nM
"CN1CCCc2c1nc(N1CCN(Cc3cnccn3)CC1)[nH]c2=O [Example 42, 8-Methyl-2-[4-(pyrazin-2-ylmethyl)piperazin-1-yl]-3,5,6,7-tetrahydropyrido[2,3-d]pyrimidin-4-one]",EC50,[1],141 nM
same,IC50,[2],22 nM
"CN1CCCc2c1nc(N1CCN(Cc3nccnc3Cl)CC1)[nH]c2=O [Example 43, 2-[4-[(3-Chloropyrazin-2-yl)methyl]piperazin-l-yl]-8-methyl-3,5,6,7-tetrahydropyrido[2,3-d]pyrimidin-4-one]",EC50,[1],74.5 nM
"Cc1nccnc1CN1CCN(c2nc3c(c(=O)[nH]2)CCCN3C)CC1 [Example 44, 8-Methyl-2-[4-[(3-methyl-pyrazin-2-yl)methyl]piperazin-1-yl]-3,5,6,7-tetrahydropyrido[2,3-d]pyrimidin-4-one]",EC50,[1],118 nM
same,IC50,[2],11.2 nM
"CN1CCCc2c1nc(N1CCN(Cc3ncc(F)cc3F)CC1)[nH]c2=O [Example 45, 2-[4-[(3,5-Difluoro-2-pyridyl)methyl]piperazin-1-yl]-8-methyl-3,5,6,7-tetrahydropyrido[2,3-d]pyrimidin-4-one]",EC50,[1],144 nM
same,IC50,[2],18.8 nM
